Laboratory results as given in US11827655B2, “Triplet-triplet annihilation upconversion system, and compositions and methods thereof for drug delivery” (University of Massachusetts, priority 2017, dated 2023).

Test: Entrapment efficiency by absorbance
Type: physicochemical
Settings: sensitizer and emitter loading in TTA-MSNs
Method: Next, TTA-MSNs were prepared dependence on the following steps. MSNs (50.0 mg) were dispersed 25 mL round flask in of BDP-F (2 mg), PEA (3 mg) and methyl oleate (150 mg) in THF (10 mL). The mixture solution was stirred until organic solvent evaporation (about 12 h) at room temperature in the dark condition. And then 10 mL PBS buffer was added. The mixture was ultrasonic shocked for 20 min. to make the nanoparticles dispersed in the PBS buffer. Then the BDP-F (sensitizer) and PEA (emitter)-loaded silica nanoparticles were low speed centrifuged (1000 rpm/min) for 5 min. The supernatant was collected and then extracted using dichloromethane (DCM). The DCM solvent containing BDP-F and PEA was used to measure sensitizer and emitter loading by collecting UV-vis absorption spectra using a molar absorption coefficient of 177500 M^−1 cm^−1 with)max=615 nm for BDP-F, 18000 M^−1cm^−1 with λmax=420 nm for PEA. Sensitizer and emitter loading were calculated using the following equation: Entrapment efficiency(%)=absorption of the loaded dye/absorption initial mass of the dye×100%.
The precipitate sample was extracted with 10 mL DCM. And then absorbance of Cou-C was measured to calculate the entrapment efficiency. Entrapment efficiency(%)=1−absorption of the unloaded prodrug/initial mass of the prodrug×100%.

In the case of `C(#Cc1c2ccccc2cc2ccccc12)c1ccccc1` [PEA, 9-phenylacetylene anthracene], the entrapment efficiency is reported as 72%.
